Values belong to the compound of their own block, whether it stands above or below them.
Columns and labels:
[1] = molecular target: T1, Serine/threonine-protein kinase 17A (Homo sapiens) (UniProt Q9UEE5); assay: Selectivity interaction (KinomeScan (DiscoverX)) EUB0000666a STK17A; settings: at 10 µM
T1 sequence (whole entry): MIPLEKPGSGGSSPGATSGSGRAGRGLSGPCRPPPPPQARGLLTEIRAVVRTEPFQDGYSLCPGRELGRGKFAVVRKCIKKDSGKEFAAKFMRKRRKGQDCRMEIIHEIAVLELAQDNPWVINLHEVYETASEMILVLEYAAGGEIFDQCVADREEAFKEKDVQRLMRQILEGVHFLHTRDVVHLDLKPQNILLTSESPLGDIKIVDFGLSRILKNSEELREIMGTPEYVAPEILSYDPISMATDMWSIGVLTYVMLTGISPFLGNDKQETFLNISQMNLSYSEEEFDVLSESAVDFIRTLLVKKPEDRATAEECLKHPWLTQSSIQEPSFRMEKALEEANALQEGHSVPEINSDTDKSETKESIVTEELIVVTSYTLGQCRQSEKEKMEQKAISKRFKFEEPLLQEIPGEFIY

[2] = molecular target: Serine/threonine-protein kinase PLK3 (Homo sapiens, UniProt Q9H4B4); assay: Selectivity interaction (SelectScreen profiling (Invitrogen)) EUB0000607a PLK3; settings: at 2 µM
PXR (NR1I2) = PXR (NR1I2) (Homo sapiens, UniProt O75469); assay: Selectivity interaction (Panel of kinases, GPCRs, ion channels and transporters (enzymatic assay)) EUB0000266bCl NR1I2
[3] = molecular target: Calcium/calmodulin-dependent protein kinase kinase 2 (Homo sapiens) (UniProt Q96RR4); settings: at 10 µM
[4] = molecular target: T2, Mitogen-activated protein kinase kinase kinase 19 (Homo sapiens) (UniProt Q56UN5); assay: Selectivity interaction (KinomeScan (DiscoverX)) EUB0001049a MAP3K19; settings: at 1 µM
T2 sequence (whole entry): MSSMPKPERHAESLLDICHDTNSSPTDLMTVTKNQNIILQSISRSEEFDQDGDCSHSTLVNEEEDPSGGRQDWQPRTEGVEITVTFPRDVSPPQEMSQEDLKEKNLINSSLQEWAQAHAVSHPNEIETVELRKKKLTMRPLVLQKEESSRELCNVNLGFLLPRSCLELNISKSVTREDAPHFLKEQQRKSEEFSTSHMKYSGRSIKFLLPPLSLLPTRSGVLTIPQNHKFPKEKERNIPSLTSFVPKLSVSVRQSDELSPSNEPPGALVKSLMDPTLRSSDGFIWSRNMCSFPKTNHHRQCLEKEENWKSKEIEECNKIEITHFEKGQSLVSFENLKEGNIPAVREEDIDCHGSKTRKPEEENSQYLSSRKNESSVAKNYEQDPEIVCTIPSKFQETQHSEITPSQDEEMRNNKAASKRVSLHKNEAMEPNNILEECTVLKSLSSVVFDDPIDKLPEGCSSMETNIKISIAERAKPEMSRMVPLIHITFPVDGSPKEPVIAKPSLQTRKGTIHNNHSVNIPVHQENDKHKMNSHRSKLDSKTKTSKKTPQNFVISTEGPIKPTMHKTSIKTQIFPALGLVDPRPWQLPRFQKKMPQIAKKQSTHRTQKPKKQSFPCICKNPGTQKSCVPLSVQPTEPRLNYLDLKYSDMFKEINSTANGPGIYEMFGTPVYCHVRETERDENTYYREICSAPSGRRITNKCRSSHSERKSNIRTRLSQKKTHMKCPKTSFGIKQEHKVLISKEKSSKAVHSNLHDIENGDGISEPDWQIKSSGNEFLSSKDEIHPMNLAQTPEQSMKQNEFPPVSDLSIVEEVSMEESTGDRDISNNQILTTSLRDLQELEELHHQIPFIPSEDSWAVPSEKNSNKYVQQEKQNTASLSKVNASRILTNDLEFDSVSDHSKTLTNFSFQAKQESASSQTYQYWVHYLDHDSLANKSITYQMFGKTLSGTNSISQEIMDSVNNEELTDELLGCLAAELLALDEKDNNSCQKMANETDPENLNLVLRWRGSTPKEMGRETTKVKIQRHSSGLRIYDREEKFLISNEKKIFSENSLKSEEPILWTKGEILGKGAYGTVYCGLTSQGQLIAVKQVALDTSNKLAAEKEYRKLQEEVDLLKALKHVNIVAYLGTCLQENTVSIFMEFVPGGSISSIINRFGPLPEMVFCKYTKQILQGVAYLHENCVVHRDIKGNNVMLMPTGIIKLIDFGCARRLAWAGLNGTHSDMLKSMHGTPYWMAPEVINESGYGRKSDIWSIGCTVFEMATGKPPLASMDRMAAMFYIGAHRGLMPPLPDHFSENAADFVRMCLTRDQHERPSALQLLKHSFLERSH

[5] = molecular target: Vascular endothelial growth factor receptor 2 (Homo sapiens, UniProt P35968); assay: Selectivity interaction (KinomeScan (DiscoverX)) EUB0001049a KDR; settings: at 1 µM
[6] = molecular target: T3, Cyclin-dependent kinase-like 5 (Homo sapiens) (UniProt O76039); assay: Selectivity interaction (KinomeScan (DiscoverX)) EUB0000045b CDKL5
T3 sequence (whole entry): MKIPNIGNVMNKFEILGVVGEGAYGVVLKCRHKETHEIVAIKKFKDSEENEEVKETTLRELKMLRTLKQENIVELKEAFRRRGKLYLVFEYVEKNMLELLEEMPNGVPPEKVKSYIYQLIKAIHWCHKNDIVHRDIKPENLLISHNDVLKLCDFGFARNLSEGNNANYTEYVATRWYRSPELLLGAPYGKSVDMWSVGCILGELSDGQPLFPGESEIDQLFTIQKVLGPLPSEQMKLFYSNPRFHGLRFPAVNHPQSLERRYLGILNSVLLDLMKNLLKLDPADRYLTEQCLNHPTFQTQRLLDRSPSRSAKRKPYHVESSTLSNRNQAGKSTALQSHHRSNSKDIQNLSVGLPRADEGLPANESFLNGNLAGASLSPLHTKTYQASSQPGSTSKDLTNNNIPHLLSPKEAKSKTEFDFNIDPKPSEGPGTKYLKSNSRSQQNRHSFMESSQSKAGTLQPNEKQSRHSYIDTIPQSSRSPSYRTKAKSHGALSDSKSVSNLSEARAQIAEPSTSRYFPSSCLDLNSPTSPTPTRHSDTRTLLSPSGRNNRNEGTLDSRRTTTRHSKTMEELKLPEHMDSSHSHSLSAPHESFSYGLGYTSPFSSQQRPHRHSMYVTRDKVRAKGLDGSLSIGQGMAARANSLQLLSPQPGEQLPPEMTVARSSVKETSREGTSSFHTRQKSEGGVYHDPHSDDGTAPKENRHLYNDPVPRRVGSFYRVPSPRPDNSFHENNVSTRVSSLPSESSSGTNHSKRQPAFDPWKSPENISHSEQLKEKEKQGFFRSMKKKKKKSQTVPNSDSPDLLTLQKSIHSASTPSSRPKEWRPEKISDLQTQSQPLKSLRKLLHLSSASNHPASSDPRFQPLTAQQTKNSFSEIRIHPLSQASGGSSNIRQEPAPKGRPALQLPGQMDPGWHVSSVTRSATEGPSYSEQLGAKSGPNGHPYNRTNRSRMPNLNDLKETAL

Chain of PXR (NR1I2) (O75469 whole entry): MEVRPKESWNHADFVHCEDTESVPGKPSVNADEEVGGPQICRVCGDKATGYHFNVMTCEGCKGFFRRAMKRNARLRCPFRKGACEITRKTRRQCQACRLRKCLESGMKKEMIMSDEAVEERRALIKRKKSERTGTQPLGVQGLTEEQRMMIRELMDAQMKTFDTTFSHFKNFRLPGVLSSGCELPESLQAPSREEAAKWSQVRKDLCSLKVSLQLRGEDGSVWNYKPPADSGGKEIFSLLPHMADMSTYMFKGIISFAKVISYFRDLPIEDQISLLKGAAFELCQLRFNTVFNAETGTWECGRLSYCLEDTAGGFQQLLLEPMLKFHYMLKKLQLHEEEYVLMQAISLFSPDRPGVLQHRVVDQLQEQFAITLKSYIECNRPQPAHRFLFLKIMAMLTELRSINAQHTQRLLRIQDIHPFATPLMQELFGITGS
Chain of Serine/threonine-protein kinase PLK3 (Q9H4B4 whole entry, looked up): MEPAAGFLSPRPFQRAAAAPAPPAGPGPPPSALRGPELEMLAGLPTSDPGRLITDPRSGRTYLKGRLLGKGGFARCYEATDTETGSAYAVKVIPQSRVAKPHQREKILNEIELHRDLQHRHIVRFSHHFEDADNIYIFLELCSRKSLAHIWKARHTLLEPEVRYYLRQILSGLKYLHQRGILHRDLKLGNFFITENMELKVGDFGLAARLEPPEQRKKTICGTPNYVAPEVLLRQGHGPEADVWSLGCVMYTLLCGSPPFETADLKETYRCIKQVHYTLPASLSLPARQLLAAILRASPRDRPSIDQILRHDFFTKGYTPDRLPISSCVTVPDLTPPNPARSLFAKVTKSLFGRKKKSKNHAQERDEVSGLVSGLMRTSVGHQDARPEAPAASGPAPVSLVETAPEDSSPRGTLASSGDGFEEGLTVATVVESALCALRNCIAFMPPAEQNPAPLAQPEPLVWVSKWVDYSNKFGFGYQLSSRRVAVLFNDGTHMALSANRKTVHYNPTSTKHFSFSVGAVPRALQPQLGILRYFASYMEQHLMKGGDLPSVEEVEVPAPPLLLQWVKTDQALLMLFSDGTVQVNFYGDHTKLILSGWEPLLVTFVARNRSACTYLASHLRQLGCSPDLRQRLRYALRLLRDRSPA
Chain of Vascular endothelial growth factor receptor 2 (P35968 whole entry): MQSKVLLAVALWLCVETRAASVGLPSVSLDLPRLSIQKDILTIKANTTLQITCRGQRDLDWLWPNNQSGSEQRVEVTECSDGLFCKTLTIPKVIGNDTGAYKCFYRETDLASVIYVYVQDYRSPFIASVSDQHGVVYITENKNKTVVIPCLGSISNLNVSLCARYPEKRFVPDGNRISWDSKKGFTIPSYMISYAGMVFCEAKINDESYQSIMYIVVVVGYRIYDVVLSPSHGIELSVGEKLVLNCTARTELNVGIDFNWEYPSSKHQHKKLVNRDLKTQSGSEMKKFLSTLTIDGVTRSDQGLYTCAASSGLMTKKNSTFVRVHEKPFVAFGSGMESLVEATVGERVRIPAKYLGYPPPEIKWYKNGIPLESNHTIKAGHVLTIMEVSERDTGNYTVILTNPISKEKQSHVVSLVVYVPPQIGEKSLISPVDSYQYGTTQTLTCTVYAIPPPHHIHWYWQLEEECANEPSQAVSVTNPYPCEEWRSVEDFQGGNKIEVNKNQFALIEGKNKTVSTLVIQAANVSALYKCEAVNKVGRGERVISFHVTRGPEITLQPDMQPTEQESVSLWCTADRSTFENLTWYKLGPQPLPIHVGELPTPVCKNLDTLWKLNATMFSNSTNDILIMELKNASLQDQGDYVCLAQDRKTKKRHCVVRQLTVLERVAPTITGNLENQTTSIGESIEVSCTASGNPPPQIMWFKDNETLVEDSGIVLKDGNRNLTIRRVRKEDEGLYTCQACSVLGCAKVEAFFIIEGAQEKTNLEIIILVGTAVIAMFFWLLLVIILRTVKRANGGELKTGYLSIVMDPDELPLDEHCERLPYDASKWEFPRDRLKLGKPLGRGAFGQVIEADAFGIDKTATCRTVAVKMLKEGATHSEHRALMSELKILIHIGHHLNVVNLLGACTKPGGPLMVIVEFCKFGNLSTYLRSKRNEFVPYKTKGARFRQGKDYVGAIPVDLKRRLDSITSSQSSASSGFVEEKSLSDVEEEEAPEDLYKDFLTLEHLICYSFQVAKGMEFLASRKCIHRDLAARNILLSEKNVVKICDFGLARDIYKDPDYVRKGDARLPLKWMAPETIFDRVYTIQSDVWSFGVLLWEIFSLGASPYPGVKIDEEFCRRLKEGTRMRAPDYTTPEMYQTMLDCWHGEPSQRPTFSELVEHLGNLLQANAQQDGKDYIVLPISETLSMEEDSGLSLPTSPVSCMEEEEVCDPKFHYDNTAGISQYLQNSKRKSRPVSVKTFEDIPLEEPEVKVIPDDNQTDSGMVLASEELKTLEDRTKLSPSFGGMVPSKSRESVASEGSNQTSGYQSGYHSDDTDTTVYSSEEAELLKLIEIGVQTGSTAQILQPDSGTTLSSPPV
Chain of Calcium/calmodulin-dependent protein kinase kinase 2 (Homo sapiens) (Q96RR4 2-588 limits assumed): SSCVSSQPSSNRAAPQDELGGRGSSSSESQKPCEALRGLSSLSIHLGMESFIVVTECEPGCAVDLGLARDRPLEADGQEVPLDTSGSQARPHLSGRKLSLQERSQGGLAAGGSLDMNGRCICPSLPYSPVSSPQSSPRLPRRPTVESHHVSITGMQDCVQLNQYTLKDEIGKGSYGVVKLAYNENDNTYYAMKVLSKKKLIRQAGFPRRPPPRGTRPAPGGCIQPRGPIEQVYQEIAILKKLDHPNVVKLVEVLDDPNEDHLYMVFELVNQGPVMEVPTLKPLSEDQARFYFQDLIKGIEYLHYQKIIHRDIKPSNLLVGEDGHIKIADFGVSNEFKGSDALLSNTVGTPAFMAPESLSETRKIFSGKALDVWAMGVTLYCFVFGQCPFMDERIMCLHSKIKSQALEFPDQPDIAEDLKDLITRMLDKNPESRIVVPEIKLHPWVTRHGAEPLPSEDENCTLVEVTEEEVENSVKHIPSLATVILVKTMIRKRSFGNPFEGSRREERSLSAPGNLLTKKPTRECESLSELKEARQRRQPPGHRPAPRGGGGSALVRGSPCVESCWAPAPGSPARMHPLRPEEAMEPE

SMILES: O=C(NOC[C@H](O)CO)c1ccc(F)c(F)c1Nc1ccc(I)cc1F
% of control [1]: 100%

SMILES: CNC(=O)Nc1ccc(-c2nc(N3CC4CCC(C3)O4)c3cnn(C4CCC5(CC4)OCCO5)c3n2)cc1
% of inhibition [2]: -11%

XC50 (PXR (NR1I2)): > 50.1 µM
SMILES: CCn1c(-c2nc3cc(C(=O)N4CCCC(N)C4)ccc3n2C)cc2ccccc21 (stereo not drawn)

% of control [3]: 100%
SMILES: CCN(CC)CCCCNc1ncc2cc(-c3cc(OC)cc(OC)c3)c(NC(=O)NC(C)(C)C)nc2n1

SMILES: COc1cc(Nc2nc(C)cc(-c3cnn4nc(OC)ccc34)n2)cc(C(F)(F)F)c1
% of control [4]: 75% | % of control [5]: 95%

SMILES: C=CC(=O)Nc1cc(-n2c(=O)ccc3cnc4ccc(-c5ccc(NS(C)(=O)=O)cc5)cc4c32)ccc1C
% of control ([6]; at 1 µM): 100% | % of control ([6]; at 10 µM): 81%
